# From article PMC8746798, “Evaluation of 2-Thioxoimadazolidin-4-one Derivatives as Potent Anti-Cancer Agents through Apoptosis Induction and Antioxidant Activation: In Vitro and In Vivo Approaches” (Molecules, 2021)
# Assays:
# [1] = Hepatic oxidant and antioxidant assessment; assay type: in vivo; details: liver homogenate, SEC-bearing mice, 6 mg/kg BW
# Procedure: We randomly divided 50 mice into groups 5 groups (10 mice in each group): normal control (I) (mice injected intraperitoneally with the same volume of solvent for 14 consecutive days); group II, a group of normal mice treated with compound 4 (mice injected intraperitoneally with newly produced compound 4 at a dose of 6 mg/kg per day for 14 days); group III, solid tumor group (mice were implanted with solid tumor); group IV, group were treated with 5-FU (after 10 days of tumor implantation, mice were treated with 6 mg/kg only once); and group V, solid tumor group were treated with compound 4 (after 10 days of tumor implantation, mice were treated with 6 mg/kg only once). after one day of the previous treatment, 10 mice from each group were sacrificed and tumor weight, tumor volume (length and width of solid femoral tumor), blood and liver samples were obtained from each group. A portion of each blood sample taken was used for complete blood count (CBC) and the rest was centrifuged to obtain the serum. Serum was used for biochemical parameter estimation. The livers were rapidly dissected, washed with isotonic saline, and dried. The experiment design is summarized in Supplementary Figure S3.
# In liver tissue homogenate, a standard commercial kit (BioDiagnostic, Cairo, Egypt) was used to evaluate oxidation and antioxidant parameters according to its methodology, as previously published in Nafie et al., 2020 [57]. Lipid peroxidation (MDA) and nitric oxide (NO) are oxidants, while reduced glutathione (GSH), catalase (CAT), and superoxide dismutase (SOD) are antioxidants.
# [2] = tested on: Caspase 3 and 9, Bcl-2, PI3K, AKT proteins in HepG2 cells; assay: Western blot of apoptosis-related proteins; assay type: cell-based, human; details: treated HepG2 vs untreated control, normalized to β-actin
# Procedure: Protein expression analysis for phosphorylated/total phosphatidylinositol 3-kinase (PI3K), protein kinase B (Akt), Caspase 3 and 9 proteins, and Bcl-2 was performed using the Western blotting technique to confirm the mechanism of apoptosis induction by compound 4 in HepG2 cells compared to control. Detailed methodology is supported in Supplementary Materials.
# HepG2 cells = assay: Annexin V-FITC/PI apoptosis/necrosis flow cytometry; assay type: cell-based, human
# Text: Apoptotic cells were quantified using double staining with annexin V and PI on flow cytometry. […] The detailed methodology of flow cytometric analysis (annexin V/PI differential apoptosis/necrosis, DNA content–flow cytometry aided cell cycle) is provided in the Supplementary Materials.
# Supplementary materials for detailed methodology
# Evaluation of 2-thioxoimadazolidin-4-one Derivatives as Potent
# Anti-cancer Agents Through Apoptosis Induction and Antioxi-dant Activation: In vitro and In vivo Approaches
# Mohamed S. Nafie 1,*, Ahmed I. Khodair 2,*, Hebat Allah Y. Hassan 3, Noha M. Abd El-Fadeal 4, Hanin A. Bogari 5 , Sameh S. Elhady 6 and Safwat A. Ahmed 3,7,* […]
# Apoptosis and necrosis cell populations are determined using Annexin V-FITC apop-tosis detection kit (Abcam Inc., Cambridge Science Park, Cambridge, UK) coupled with 2 fluorescent channels flowcytometry. […]
# Then, cells are incubated in dark with 0.5 ml of Annexin V-FITC/PI solution for 30 min in dark at room temperature according to manufacturer protocol. After staining, cells are injected via ACEA Novocyte™ flowcytometer (ACEA Biosciences Inc., San Diego, CA, USA) and analyzed for FITC and PI fluorescent signals using FL1 and FL2 signal detector, respectively (λex/em 488/530 nm for FITC and λex/em 535/617 nm for PI). […]
compound,measurement,setting,value
"O=C1NC(=S)N(c2ccc(O)cc2)/C1=C/c1cccs1 [Compound 4, (E)-1-(4-Hydroxyphenyl)-5-(thiophen-2-ylmethylene)-2-thioxoimidazolidin-4-one]",GSH (antioxidant),[1]; SEC control 18.23,39.27 mg/g Tissue
same,CAT (antioxidant),[1]; SEC control 21.69,46.9 U/g Tissue
same,SOD (antioxidant),[1]; SEC control 27.36,48.69 U/g Tissue
same,NO (oxidative stress),[1]; SEC control 79.69,42.38 U/g Tissue
same,MDA (oxidative stress),"[1]; SEC control 98.39, n = 6",73.36 nmol/g Tissue
same,AKT protein level,[2],decreased
same,BCL2 protein level,[2],decreased
same,Caspase 3 protein level,[2],upregulated
same,Caspase 9 protein level,[2],upregulated
same,PI3K protein level,[2],decreased
same,"necrotic cells (Q1, AV−/PI+)","HepG2 cells; HepG2, IC50 = 0.017 μM, 48 h, control 1.05%",6.08%
same,apoptosis induction versus control,"HepG2 cells; HepG2, 11.42% compared to 0.59% in control",19.35 fold
